Data taken from publication PMC11945486, “TAS1R2/TAS1R3 Single-Nucleotide Polymorphisms Affect Sweet Taste Receptor Activation by Sweeteners: The SWEET Project” (Nutrients, 2025).
Like-named read-outs stand apart in the source and are kept apart here. No end group written: not given here.

T1: human TAS1R2-WT/TAS1R3-A735T (Homo sapiens, UniProt Q7RTX0+Q8TE23, A735T)
T1 construct: expressed in transfected cells; host or cells: HEK293T stably expressing Gα16gust44
T1 sequence (Q8TE23 20-839): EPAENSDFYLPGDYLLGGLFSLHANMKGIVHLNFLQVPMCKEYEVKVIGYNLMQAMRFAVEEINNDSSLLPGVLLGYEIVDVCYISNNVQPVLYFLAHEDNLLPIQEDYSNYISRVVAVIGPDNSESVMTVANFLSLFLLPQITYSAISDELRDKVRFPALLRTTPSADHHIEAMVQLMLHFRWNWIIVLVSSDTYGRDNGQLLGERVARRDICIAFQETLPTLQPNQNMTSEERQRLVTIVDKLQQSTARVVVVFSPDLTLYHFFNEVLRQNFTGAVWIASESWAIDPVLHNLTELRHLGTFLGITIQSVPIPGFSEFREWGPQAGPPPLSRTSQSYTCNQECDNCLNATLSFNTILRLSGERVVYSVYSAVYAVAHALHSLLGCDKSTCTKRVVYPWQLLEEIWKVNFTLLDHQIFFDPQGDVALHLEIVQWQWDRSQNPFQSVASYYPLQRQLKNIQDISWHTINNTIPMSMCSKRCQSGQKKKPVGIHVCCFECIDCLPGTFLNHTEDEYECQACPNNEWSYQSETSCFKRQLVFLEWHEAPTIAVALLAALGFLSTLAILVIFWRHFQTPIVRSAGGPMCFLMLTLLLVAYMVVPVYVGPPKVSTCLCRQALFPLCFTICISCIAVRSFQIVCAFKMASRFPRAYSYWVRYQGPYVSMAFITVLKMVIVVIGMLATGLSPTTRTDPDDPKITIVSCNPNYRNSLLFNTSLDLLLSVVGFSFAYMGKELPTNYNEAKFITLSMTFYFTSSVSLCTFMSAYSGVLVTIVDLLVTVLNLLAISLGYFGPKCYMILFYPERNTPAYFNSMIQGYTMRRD
T1 sequence (Q7RTX0 21-852 A735T): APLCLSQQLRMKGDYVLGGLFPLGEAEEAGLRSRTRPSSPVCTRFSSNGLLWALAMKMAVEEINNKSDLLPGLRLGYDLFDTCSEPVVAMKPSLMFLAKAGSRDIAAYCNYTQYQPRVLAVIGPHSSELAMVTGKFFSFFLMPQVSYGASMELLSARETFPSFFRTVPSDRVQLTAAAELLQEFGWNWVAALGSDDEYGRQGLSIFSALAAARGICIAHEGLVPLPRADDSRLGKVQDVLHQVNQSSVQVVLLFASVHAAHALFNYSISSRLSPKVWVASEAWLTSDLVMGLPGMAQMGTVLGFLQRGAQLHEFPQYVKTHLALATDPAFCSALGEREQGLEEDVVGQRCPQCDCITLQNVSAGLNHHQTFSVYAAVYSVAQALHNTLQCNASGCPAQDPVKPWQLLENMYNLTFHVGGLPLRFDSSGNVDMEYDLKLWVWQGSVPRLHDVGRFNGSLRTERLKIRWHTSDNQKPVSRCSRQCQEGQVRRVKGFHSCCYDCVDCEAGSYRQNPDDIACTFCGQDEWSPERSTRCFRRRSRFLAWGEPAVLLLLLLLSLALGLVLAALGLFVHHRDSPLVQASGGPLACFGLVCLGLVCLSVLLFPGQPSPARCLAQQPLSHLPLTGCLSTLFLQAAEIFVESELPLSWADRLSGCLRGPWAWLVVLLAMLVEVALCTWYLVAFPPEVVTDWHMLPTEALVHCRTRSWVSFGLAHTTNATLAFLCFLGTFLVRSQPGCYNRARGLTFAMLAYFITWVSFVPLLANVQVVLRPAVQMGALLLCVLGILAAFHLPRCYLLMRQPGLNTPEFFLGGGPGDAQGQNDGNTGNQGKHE


Molecular target: T1, human TAS1R2-WT/TAS1R3-A735T
Test: Calcium mobilisation assay, TAS1R2-WT with TAS1R3 variant A735T
Assay type: cell-based
Settings: for Max ΔF/F0: maximal signal amplitude
Source text: The coding sequences for TAS1R2 and TAS1R3 were commercially synthesised, and the human codon was optimised for expression in human cells. The coding sequences of human TAS1R2 and TAS1R3 were subcloned and inserted into the mammalian expression vectors pcDNA6/myc-HisA and pcDNA4/myc-HisA (Invitrogen; Thermo Fisher Scientific; Illkirch, France) between the EcoRI and NotI restriction sites, generating the plasmids pcDNA6-TAS1R2 and pcDNA4-TAS1R3, respectively. To increase protein expression in mammalian cells, an upstream start codon was used, which was a sequence called MAX, corresponding to the QBI SP163 element also described in pcDNA4-HisMax (Invitrogen; Thermo Fisher Scientific; Illkirch, France). To measure the expression level of the receptor by immunohistochemistry, we used the FLAG sequence ([…]) in the C-terminal position, which encodes the FLAG tag epitope. SNP variants of TAS1R2 and TAS1R3 were constructed based on […], respectively, using site-directed mutagenesis (Genewiz; Leipzig, Germany).
The HEK293T cells were kindly provided by Jay P. Slack (Givaudan Flavors Corporation; Cincinnati, OH, USA). HEK293T cells stably transfected with Gα16gust44 [43, 67] were seeded in poly-D-lysine-coated clear-bottom black 96-well plates (0.35 × 10^5 cells/well) in high-glucose DMEM supplemented with 2 mM GlutaMAX, 10% dialysed foetal bovine serum with penicillin/streptomycin and G418 (400 μg/mL) at 37 °C and 6.3% CO2 in a humidified atmosphere as previously reported. […] As a negative control, HEK293T cells were mock-transfected with the empty expression vector. After a further 24 h of incubation, the HEK293T cells were washed with C1 buffer (130 mM NaCl, 5 mM KCl, 10 mM HEPES pH 7.4 and 2 mM CaCl2). The 96-well plates containing the cells were then stimulated with sweet-tasting compounds. […] Different concentration ranges were tested depending on the sweet compound injected. The Ca^2+ changes were expressed as fractional changes in fluorescent light intensity: ΔF/F = (F − F0)/F0, where F was the fluorescent light intensity at each point, and F0 was the value of emitted fluorescent light prior to stimulus application. To calculate dose–response relationships, the changes in fluorescence upon stimulus application were averaged, mock-subtracted and baseline-corrected. The dose–response data obtained were adjusted using a 4-parameter logistic equation. The half-maximal effective concentrations (EC50 values) and maximal signal amplitudes were calculated using SigmaPlot software (version 15.0) (Systat Software; San Jose, CA, USA).
For in vitro calcium mobilisation assay performed on hTAS1R2-SNPs, hTAS1R3-SNPs and mTAS1R3-I60T, 6 to 7 concentrations were tested for each sweet compound, plus buffer alone. All concentration–receptor combinations were measured in duplicate, and each experiment was repeated at least 4 times (8 wells/concentration). Results were expressed for each concentration as ΔF/F mean ± SEM and represented as dose–response curves.

Row | Molecule | R1 = Variant EC50/WT EC50 | Max ΔF/F0 | EC50 (read-out: EC50) [µM] | EC50 (brazzein) [µg/mL]
1 | OC[C@H]1O[C@H](O[C@]2(CCl)O[C@H](CCl)[C@@H](O)[C@@H]2O)[C@H](O)[C@@H](O)[C@H]1Cl [Sucralose] | 1.4 | 0.70 ± 0.01 | 151 ± 4 | –
2 | O=S(=O)(O)NC1CCCCC1 [Cyclamate, cyclamate] | – | – | 1870 ± 32 | –
3 | C=C(C)[C@@H]1CC=C(/C=N/O)CC1 [Perillartine, perillartine] | 0.9 | 1.56 ± 0.23 | 12.6 ± 5.9 | –
4 | C=C1C[C@@]23CC[C@H]4[C@@](C)(CCC[C@@]4(C)C(=O)O[C@@H]4O[C@H](CO)[C@@H](O)[C@H](O[C@@H]5O[C@H](CO)[C@@H](O)[C@H](O)[C@H]5O)[C@H]4O[C@@H]4O[C@H](CO)[C@@H](O)[C@H](O)[C@H]4O)[C@@H]2CC[C@]1(O[C@@H]1O[C@H](CO)[C@@H](O)[C@H](O[C@@H]2O[C@H](CO)[C@@H](O)[C@H](O)[C@H]2O)[C@H]1O[C@@H]1O[C@H](CO)[C@@H](O)[C@H](O)[C@H]1O)C3 [Rebaudioside M, rebaudioside M] | 0.6 | 1.24 ± 0.04 | 23 ± 1.9 | –
5 | COc1ccc(CCC(=O)c2c(O)cc(O[C@@H]3O[C@H](CO)[C@@H](O)[C@H](O)[C@H]3O[C@@H]3O[C@@H](C)[C@H](O)[C@@H](O)[C@H]3O)cc2O)cc1O [NHDC, neohesperidin dihydrochalcone] | 0.8 | 1.00 ± 0.01 | 42.2 ± 1.4 | –
6 | thaumatin | 0.7 | 0.70 ± 0.06 | – | –
7 | CC1=CC(=O)NS(=O)(=O)O1 [Acesulfame K, acesulfame K] | 1.1 | 0.47 ± 0.02 | 685 ± 56 | –
8 | brazzein (QDKCKKVYENYPVSKCQLANQCNYDCKLDKHARSGECFYDEKRNLQCICDYCEY; ends and bridges not checked; cysteine pairing not given here; UniProt P56552 1-54, looked up) [sweet-tasting protein obtained by recombinant production using the yeast Pichia pastoris] | 0.7 | 0.90 ± 0.05 | – | 82.7 ± 14.9
9 | C[C@H](CC[C@@H](O[C@@H]1O[C@H](CO[C@@H]2O[C@H](CO)[C@@H](O)[C@H](O)[C@H]2O)[C@@H](O)[C@H](O)[C@H]1O[C@@H]1O[C@H](CO)[C@@H](O)[C@H](O)[C@H]1O)C(C)(C)O)[C@H]1CC[C@@]2(C)[C@@H]3CC=C4[C@@H](CC[C@H](O[C@@H]5O[C@H](CO[C@@H]6O[C@H](CO)[C@@H](O)[C@H](O)[C@H]6O)[C@@H](O)[C@H](O)[C@H]5O)C4(C)C)[C@]3(C)[C@H](O)C[C@]12C [Mogroside V, mogroside V] | 0.9 | 1.17 ± 0.03 | 28.7 ± 2.2 | –
10 | COC(=O)[C@H](Cc1ccccc1)NC(=O)[C@H](CC(=O)O)NCCC(C)(C)C [Neotame] | 0.8 | 0.61 ± 0.02 | 0.93 ± 0.07 | –
11 | thaumatin (protein, Eight disulfides, sweet-tasting plant protein, E957) ATFEIVNRCSYTVWAAASKGDAALDAGGRQLNSGESWTINVEPGTKGGKIWARTDCYFDDSGSGICKTGDCGGLLRCKRFGRPPTTLAEFSLNQYGKDYIDISNIKGFNVPMDFSPTTRGCRGVRCAADIVGQCPAKLKAPGGGCNDACTVFQTSEYCCTTGKCGPTEYSRFFKRLCPDAFSYVLDKPTTVTCPGSSNYRVTFCPTA | – | – | 7.2 ± 1.5 | –
